A short description of series [1]: Pharmacological activity of intermediates, general statement.
For series [2], the system named is lethal effects of Adrenaline. Nature of the series: Adrenolytic activity "in vivo": protection against the lethal effects of Adrenaline (Luduena et al.). The following applies: Rattus norvegicus, po; rats, os, 60 minutes before 200 mcg/Kg Adrenaline endovenous; read-out: ID50 (dose protecting 50% of the animals from the lethal effects of Adrenaline). As to the method: (§1) For the adrenolytic activity "in vivo" the method of Luduena et al. (Arch. int. Pharmacodyn., 122, 111, 1959) has been used, based on the evaluation of the protective action of the adrenolytic compounds against the lethal effects of Adrenaline.
(§2) The drugs under examination are administered by the endovenous route dissolved in water, and by the oral route they are dissolved or suspended in 5% arabic gum, respectively at 5 and 60 minutes before a fixed dose of 200 mcg/Kg of Adrenaline by the endovenous route.
(§3) Always 10 rats have been employed per group.
(§4) The activity of the drug is expressed as the dose protecting 50% of the animals from the lethal effects of Adrenaline administered by the endovenous route (ED50).

Series [3] concerns contractions caused by Adrenaline in seminal small bladder of Guinea-pig. As to the kind of experiment: Adrenolytic activity "in vitro": inhibition of contractions induced by Adrenaline in isolated seminal small bladder. The following applies: Tyrode, 38°C, 3 minutes of contact, 1 mcg/ml Adrenaline. The protocol:
The adrenolytic activity of the new esters has been studied in comparison with that of Nicergoline [1,6-dimethyl-8β-(5'-bromonicotinoyloxymethyl)-10α-methoxyergoline] and of dihydroergotamine. The activity "in vitro" has been determined employing seminal small bladder of Guinea-pig immersed in Tyrode liquid wherein oxygen and 5% carbon dioxide are bubbled.
The bath temperature is maintained constant at 38°C. The contractions induced by Adrenaline are registered on a chimograph by means of an isotonic lever. The activity of the drug under examination is expressed as the concentration in mcg/ml able, after 3 minutes of contact, to inhibit 50% of the contractions caused by 1 mcg/ml of Adrenaline (IC50).

Series [4] in a line: Therapeutic index (LD50/ID50), oral. The following applies: in vivo, os, LD50 in mice, ID50 in rats. The protocol: as §1, §2, §3, §4
(§5) In order to evaluate the toxicity of the drugs under examination, increasing doses are administered to groups of 5-10 mice which are then followed for a period of 7 days.
(§6) For administration by the oral route, the compounds are dissolved or suspended, according to the solubility, in 5% arabic gum. The LD50 expresses the dose of drug which causes the death of 50% of the animals.

Series [5] in a line: Toxicity: LD50 by the oral route, 7 days follow-up. The following applies: mouse, in vivo, mice, os, followed for 7 days. As to the method: as §5, §6

For `CO[C@]12C[C@@H](CCO)CN(C)[C@@H]1Cc1cn(C)c3cccc2c13` [(V), 1,6-Dimethyl-8β-hydroxyethyl-10α-methoxyergoline], the pharmacological activity result in series [1] was “slight pharmacological activity”.
Consider `CN1C[C@H](C(=O)N[C@]2(C)O[C@@]3(O)[C@@H]4CCCN4C(=O)[C@H](Cc4ccccc4)N3C2=O)C[C@@H]2c3cccc4[nH]cc(c34)C[C@H]21` [Dihydroergotamine, reference compound], for which the ED50 in series [2] came to 15 mg/kg. Further, the “IC50 (concentration inhibiting 50% of the contractions caused by 1 mcg/ml of Adrenaline)” value in series [3] was 15 ng/mL.
For orientation: LD50 means the dose at which mortality reaches 50%. A low value points to greater toxicity. As for `CO[C@]12C[C@@H](CCOC(=O)c3cc[nH]c3C)CN(C)[C@@H]1Cc1cn(C)c3cccc2c13` [1,6-Dimethyl-8β-[2'-methyl-3'-pyrroyloxy-ethyl]-10α-methoxyergoline], the ED50 in series [2] was determined as 0.1 mg/kg. Also, the selectivity ratio in series [4] amounted to 1300. Also, the LD50 at 168 h in series [5] is 100 mg/kg. The “IC50 (concentration inhibiting 50% of the contractions caused by 1 mcg/ml of Adrenaline)” value in series [3] came out at 1 ng/mL.
On to `CO[C@]12C[C@@H](CCOC(=O)c3[nH]c(C)cc3C)CN(C)[C@@H]1Cc1cn(C)c3cccc2c13` [1,6-Dimethyl-8β-[3',5'-dimethyl-2'-pyrroyloxyethyl]-10α-methoxyergoline], for which the ED50 in series [2] is 0.12 mg/kg. Moreover, the selectivity ratio in series [4] is 3750. Besides, the LD50 at 168 h in series [5] was determined as 300 mg/kg.
On to `CO[C@]12C[C@@H](CCOC(=O)c3c(C)cc(C)n3C)CN(C)[C@@H]1Cc1cn(C)c3cccc2c13` [1,6-Dimethyl-8β-[1',3',5'-trimethyl-2'-pyrroyloxyethyl]-10α-methoxyergoline], for which the ED50 in series [2] came to 0.1 mg/kg. Also, the selectivity ratio in series [4] turned out to be 1300. In addition, the LD50 at 168 h in series [5] came to 100 mg/kg.
Taken in the same sequence, the figures for `CCn1cccc1C(=O)OCC[C@H]1CN(C)[C@@H]2Cc3cn(C)c4cccc(c34)[C@@]2(OC)C1` [1,6-Dimethyl-8β-[1'-ethyl-2'-pyrroyloxyethyl]-10α-methoxyergoline] were 0.025 mg/kg, 5200 and 180 mg/kg.
Taken in the same sequence, the figures for `CO[C@]12C[C@@H](CCOC(=O)c3ccc[nH]3)CN(C)[C@@H]1Cc1cn(C)c3cccc2c13` [1,6-Dimethyl-8β-[2'-pyrroyloxyethyl]-10α-methoxyergoline] were 0.06 mg/kg, 6600 and 450 mg/kg.
For `CO[C@]12C[C@@H](COC(=O)c3cncc(Br)c3)CN(C)[C@@H]1Cc1cn(C)c3cccc2c13` [Nicergoline, 1,6-dimethyl-8β-(5'-bromonicotinoyloxymethyl)-10α-methoxyergoline, reference compound], the ED50 in series [2] was found to be 7 mg/kg. In addition, in series [4], the selectivity ratio turned out to be 90. This compound came in with an LD50 at 168 h in series [5] of 632 mg/kg. In addition, the “IC50 (concentration inhibiting 50% of the contractions caused by 1 mcg/ml of Adrenaline)” value in series [3] amounted to 1 ng/mL.

The values above are taken from patent US3972883A, “1,6-Dimethyl-8β-[2' or 3'-pyrroyloxyethyl or substituted pyrroyloxyethyl]-10α-methoxyergolene compounds” (Societa Farmaceutici Italia S.p.A., priority 1973, dated 1976).
